# What was measured:
# Assay type in all cases: cell-based, human
# [1] = system: RPMI-8226; assay: NCI60 antitumor screening; settings: 10 μM one-dose
# [2] = system: CAKI-1; assay: NCI60 antitumor screening; settings: 10 μM one-dose
# [3] = system: SR; assay: NCI60 antitumor screening; settings: 10 μM one-dose
# [4] = system: NCI-H322M; assay: NCI60 antitumor screening; settings: 10 μM one-dose
# [5] = system: 786–0; assay: NCI60 antitumor screening; settings: 10 μM one-dose
# [6] = system: COLO 205; assay: NCI60 antitumor screening; settings: 10 μM one-dose
# [7] = system: RXF 393; assay: NCI60 antitumor screening; settings: 10 μM one-dose
# [8] = system: NCI-H460; assay: NCI60 antitumor screening; settings: 10 μM one-dose
# [9] = system: HCC-2998; assay: NCI60 antitumor screening; settings: 10 μM one-dose
# [10] = system: NCI-H522; assay: NCI60 antitumor screening; settings: 10 μM one-dose
# [11] = system: UACC-62; assay: NCI60 antitumor screening; settings: 10 μM one-dose
# [12] = system: HT29; assay: NCI60 antitumor screening; settings: 10 μM one-dose
# [13] = system: MDA-MB-435; assay: NCI60 antitumor screening; settings: 10 μM one-dose
# [14] = system: T-47D; assay: NCI60 antitumor screening; settings: 10 μM one-dose
# [15] = system: M14; assay: NCI60 antitumor screening; settings: 10 μM one-dose
# [16] = system: SN12C; assay: NCI60 antitumor screening; settings: 10 μM one-dose
# [17] = system: BT-549; assay: NCI60 antitumor screening; settings: 10 μM one-dose
# [18] = system: HCT-116; assay: NCI60 antitumor screening; settings: 10 μM one-dose
# [19] = system: U251; assay: NCI60 antitumor screening; settings: 10 μM one-dose
# [20] = system: SF-539; assay: NCI60 antitumor screening; settings: 10 μM one-dose
# [21] = system: HCT-15; assay: NCI60 antitumor screening; settings: 10 μM one-dose
# [22] = system: NCI60 cell lines panel; assay: NCI60 antitumor screening, full panel; settings: 10 μM one-dose, mean over NCI60
# Method: The National Cancer Institute (NCI), Bethesda, Maryland, United States, selected all of the novel synthesized compounds (2b–d, 3a–d and 4a–p) for in vitro antitumor screening at a single concentration of 10 μM toward the NCI60 cell lines panel covering leukaemia, non-small cell lungs, colon, central nervous system (CNS), melanoma, ovarian, renal, prostate, and breast cancer cells.[32–35] The data were reported as a mean graph of the percent growth of the treated cell lines and expressed as percentage growth inhibition (GI%) in Table 1 and ESI 1.
# (2) The molar concentration of the compound responsible for total growth inhibition, also known as total growth inhibition (TGI).
# Regarding subpanel selectivity toward certain cancer type, the method of determining a compound's selectivity index is to divide the full panel MG-MID (μM) value by each single subpanel. Values above six indicate high selectivity against the subpanel; moderate selectivity is denoted by values between three and six. Conversely, compounds are termed nonselective if their selectivity is less than three.[30,37]
# [23] = system: SF-268; assay: NCI60 antitumor screening; settings: 10 μM one-dose
# [24] = system: SK-MEL-5; assay: NCI60 antitumor screening; settings: 10 μM one-dose
# [25] = system: UO-31; assay: NCI60 antitumor screening; settings: 10 μM one-dose
# [26] = system: A498; assay: NCI60 antitumor screening; settings: 10 μM one-dose
# [27] = system: PC-3; assay: NCI60 antitumor screening; settings: 10 μM one-dose
# [28] = system: OVCAR-4; assay: NCI60 antitumor screening; settings: 10 μM one-dose
# [29] = system: OVCAR-8; assay: NCI60 antitumor screening; settings: 10 μM one-dose
# [30] = system: HOP-62; assay: NCI60 antitumor screening; settings: 10 μM one-dose
# [31] = system: HOP-92; assay: NCI60 antitumor screening; settings: 10 μM one-dose
# [32] = system: KM12; assay: NCI60 antitumor screening; settings: 10 μM one-dose
# [33] = system: SNB-75; assay: NCI60 antitumor screening; settings: 10 μM one-dose
# [34] = system: SF-295; assay: NCI60 antitumor screening; settings: 10 μM one-dose
# [35] = system: NCI-H23; assay: NCI60 antitumor screening; settings: 10 μM one-dose
# [36] = system: A549/ATCC; assay: NCI60 antitumor screening; settings: 10 μM one-dose
# [37] = system: MCF7; assay: NCI60 antitumor screening; settings: 10 μM one-dose
# [38] = system: SW-620; assay: NCI60 antitumor screening; settings: 10 μM one-dose
# [39] = system: LOX IMVI; assay: NCI60 antitumor screening; settings: 10 μM one-dose
# [40] = system: UACC-257; assay: NCI60 antitumor screening; settings: 10 μM one-dose
# [41] = system: ACHN; assay: NCI60 antitumor screening; settings: 10 μM one-dose
# [42] = system: OVCAR-3; assay: NCI60 antitumor screening; settings: 10 μM one-dose
# [43] = system: OVCAR-5; assay: NCI60 antitumor screening; settings: 10 μM one-dose
# [44] = system: SK-MEL-2; assay: NCI60 antitumor screening; settings: 10 μM one-dose
# [45] = system: CCRF-CEM; assay: NCI60 antitumor screening; settings: 10 μM one-dose
# [46] = system: NCI-H226; assay: NCI60 antitumor screening; settings: 10 μM one-dose
# [47] = system: HL-60(TB); assay: NCI60 antitumor screening; settings: 10 μM one-dose
# [48] = system: MALME-3M; assay: NCI60 antitumor screening; settings: 10 μM one-dose
# [49] = system: EKVX; assay: NCI60 antitumor screening; settings: 10 μM one-dose
# [50] = system: MDA-MB-468; assay: NCI60 antitumor screening; settings: 10 μM one-dose
# [51] = system: IGROV1; assay: NCI60 antitumor screening; settings: 10 μM one-dose
# [52] = system: K-562; assay: NCI60 antitumor screening; settings: 10 μM one-dose
# [53] = system: HS 578T; assay: NCI60 antitumor screening; settings: 10 μM one-dose
# [54] = system: MOLT-4; assay: NCI60 antitumor screening; settings: 10 μM one-dose
# [55] = system: TK-10; assay: NCI60 antitumor screening; settings: 10 μM one-dose
# [56] = system: SNB-19; assay: NCI60 antitumor screening; settings: 10 μM one-dose
# [57] = system: DU-145; assay: NCI60 antitumor screening; settings: 10 μM one-dose
# [58] = system: SK-OV-3; assay: NCI60 antitumor screening; settings: 10 μM one-dose
# [59] = system: NCI/ADR-RES; assay: NCI60 antitumor screening; settings: 10 μM one-dose
# [60] = system: SK-MEL-28; assay: NCI60 antitumor screening; settings: 10 μM one-dose
# [61] = system: MDA-MB-231/ATCC; assay: NCI60 antitumor screening; settings: 10 μM one-dose
smiles,measurement,setting,value
"N#Cc1c(-c2ccc(F)cc2)nc(SCc2ccccc2)nc1N1CCOCC1 [4a, 2-(Benzylthio)-4-(4-fluorophenyl)-6-morpholinopyrimidine-5-carbonitrile]",GI%,[1],— (GI% < 10)
same,GI%,[2],— (GI% < 10)
same,GI%,[3],— (GI% < 10)
same,GI%,[4],— (GI% < 10)
same,GI%,[5],— (GI% < 10)
same,GI%,[6],— (GI% < 10)
same,GI%,[7],— (GI% < 10)
same,GI%,[8],— (GI% < 10)
same,GI%,[9],— (GI% < 10)
same,GI%,[10],16.81%
same,GI%,[11],13.24%
same,GI%,[12],— (GI% < 10)
same,GI%,[13],— (GI% < 10)
same,GI%,[14],15.89%
same,GI%,[15],— (GI% < 10)
same,GI%,[16],— (GI% < 10)
same,GI%,[17],19.15%
same,GI%,[18],10.37%
same,GI%,[19],— (GI% < 10)
same,GI%,[20],16.91%
same,GI%,[21],— (GI% < 10)
same,Mean GI%,[22],— (GI% < 10)
same,GI%,[23],— (GI% < 10)
same,GI%,[24],— (GI% < 10)
same,GI%,[25],— (GI% < 10)
same,GI%,[26],— (GI% < 10)
same,GI%,[27],— (GI% < 10)
same,GI%,[28],— (GI% < 10)
same,GI%,[29],21.20%
same,GI%,[30],— (GI% < 10)
same,GI%,[31],15.08%
same,GI%,[32],— (GI% < 10)
same,GI%,[33],— (GI% < 10)
same,GI%,[34],— (GI% < 10)
same,GI%,[35],— (GI% < 10)
same,GI%,[36],— (GI% < 10)
same,GI%,[37],— (GI% < 10)
same,GI%,[38],— (GI% < 10)
same,GI%,[39],— (GI% < 10)
same,GI%,[40],— (GI% < 10)
same,GI%,[41],— (GI% < 10)
same,GI%,[42],— (GI% < 10)
same,GI%,[43],— (GI% < 10)
same,GI%,[44],— (GI% < 10)
same,GI%,[45],— (GI% < 10)
same,GI%,[46],— (GI% < 10)
same,GI%,[47],31.31%
same,GI%,[48],— (GI% < 10)
same,GI%,[49],— (GI% < 10)
same,GI%,[50],— (GI% < 10)
same,GI%,[51],— (GI% < 10)
same,GI%,[52],16.46%
same,GI%,[53],19.87%
same,GI%,[54],— (GI% < 10)
same,GI%,[55],— (GI% < 10)
same,GI%,[56],— (GI% < 10)
same,GI%,[57],— (GI% < 10)
same,GI%,[58],— (GI% < 10)
same,GI%,[59],10.32%
same,GI%,[60],— (GI% < 10)
same,GI%,[61],10.65%
